The source of these data is patent US20100331310A1, “BICYCLOAMINE DERIVATIVES” (priority 2008, published 2010).

Counter-ions that a name gives are not always drawn.

In one experiment the target is T1, human Nav1.8 (Homo sapiens, UniProt Q9Y5Y9).
T1 construct: expressed in transfected cells
T1 sequence (Q9Y5Y9 whole entry): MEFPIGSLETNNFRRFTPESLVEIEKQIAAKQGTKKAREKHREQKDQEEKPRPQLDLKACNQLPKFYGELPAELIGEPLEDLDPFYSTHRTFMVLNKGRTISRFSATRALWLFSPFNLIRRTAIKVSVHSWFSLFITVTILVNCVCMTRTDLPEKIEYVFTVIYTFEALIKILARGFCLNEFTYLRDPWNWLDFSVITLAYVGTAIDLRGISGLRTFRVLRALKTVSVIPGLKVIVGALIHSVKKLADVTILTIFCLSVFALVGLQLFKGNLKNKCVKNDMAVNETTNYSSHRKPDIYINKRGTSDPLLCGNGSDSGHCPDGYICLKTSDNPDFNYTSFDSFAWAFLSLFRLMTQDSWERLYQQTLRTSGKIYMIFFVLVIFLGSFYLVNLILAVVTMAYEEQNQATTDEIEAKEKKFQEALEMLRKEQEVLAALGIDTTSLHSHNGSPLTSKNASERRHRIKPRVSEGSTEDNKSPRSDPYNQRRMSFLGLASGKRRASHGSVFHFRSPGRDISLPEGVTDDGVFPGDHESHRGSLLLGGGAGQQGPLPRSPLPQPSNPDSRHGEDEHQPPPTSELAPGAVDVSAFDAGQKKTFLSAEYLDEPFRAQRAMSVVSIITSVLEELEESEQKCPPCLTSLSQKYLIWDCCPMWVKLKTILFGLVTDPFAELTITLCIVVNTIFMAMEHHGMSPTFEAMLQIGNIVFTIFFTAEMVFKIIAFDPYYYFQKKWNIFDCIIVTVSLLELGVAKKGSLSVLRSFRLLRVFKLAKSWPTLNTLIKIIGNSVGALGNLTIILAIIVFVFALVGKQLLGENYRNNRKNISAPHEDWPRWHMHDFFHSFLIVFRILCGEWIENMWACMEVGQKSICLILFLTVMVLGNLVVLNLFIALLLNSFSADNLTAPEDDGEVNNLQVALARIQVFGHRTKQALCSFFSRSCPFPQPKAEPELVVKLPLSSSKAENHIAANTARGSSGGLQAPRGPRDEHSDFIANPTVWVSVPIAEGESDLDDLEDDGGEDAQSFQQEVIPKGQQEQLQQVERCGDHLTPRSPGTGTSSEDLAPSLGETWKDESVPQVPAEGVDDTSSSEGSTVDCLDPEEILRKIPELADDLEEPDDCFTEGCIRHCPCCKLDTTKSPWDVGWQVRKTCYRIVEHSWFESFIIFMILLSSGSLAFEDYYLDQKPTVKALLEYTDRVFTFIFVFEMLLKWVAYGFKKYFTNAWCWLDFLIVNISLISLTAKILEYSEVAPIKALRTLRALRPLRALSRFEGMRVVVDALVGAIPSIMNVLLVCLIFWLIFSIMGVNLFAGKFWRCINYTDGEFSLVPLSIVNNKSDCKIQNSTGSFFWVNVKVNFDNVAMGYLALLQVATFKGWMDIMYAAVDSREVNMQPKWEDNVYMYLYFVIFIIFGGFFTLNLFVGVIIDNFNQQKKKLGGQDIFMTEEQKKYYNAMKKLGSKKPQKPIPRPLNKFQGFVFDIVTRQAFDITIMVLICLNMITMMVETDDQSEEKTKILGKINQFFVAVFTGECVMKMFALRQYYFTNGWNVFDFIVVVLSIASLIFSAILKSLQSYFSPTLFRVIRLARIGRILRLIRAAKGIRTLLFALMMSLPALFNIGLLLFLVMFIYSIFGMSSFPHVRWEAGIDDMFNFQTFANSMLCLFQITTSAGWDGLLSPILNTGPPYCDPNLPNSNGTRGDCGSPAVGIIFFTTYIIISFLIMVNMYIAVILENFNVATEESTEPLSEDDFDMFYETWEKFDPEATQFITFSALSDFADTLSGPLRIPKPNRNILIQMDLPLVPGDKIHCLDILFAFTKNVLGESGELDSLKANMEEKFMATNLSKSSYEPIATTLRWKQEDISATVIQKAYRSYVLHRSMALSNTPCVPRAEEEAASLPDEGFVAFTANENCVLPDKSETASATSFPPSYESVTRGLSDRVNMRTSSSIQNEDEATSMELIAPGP
In words: Membrane potential increase-inhibitory action on TTX-resistant Na channels in cells expressing human Nav1.8 gene (deltamethrin stimulation). It counts as cell-based.
Conditions: not given
On the procedure: A cell line expressing human Nav1.8 gene was used to evaluate the pharmacological effects of compounds of the invention.
1. A membrane potential-sensitive dye containing TTX (final concentration: 0.25 μM) was added to cells expressing human Nav1.8, prior to incubation at 37° C. for 30-60 minutes. 2. The test compound was added to the cells, and the mixture was stationed for 15-30 minutes at room temperature while shielded from light. 3. Deltamethrin (final concentration: 50 μM), a Nav1.8 channel stimulant, was added, and the change in fluorescence intensity due to increased membrane potential was measured.
The Nav1.8 channel inhibition of the test compound was determined by the following equation.
As usually defined, the IC50 is the concentration that inhibits the measured activity by half. Low readings indicate higher potency, high ones lower potency. In turn, `Cc1nn(C[C@H](F)CN2C3CCC2CC(OCc2cccs2)C3)c(=O)n1C` (stereo partly drawn) [Example 7, (Endo)-2-{(R)-2-fluoro-3-[3-(thiophen-2-ylmethoxy)-8-azabicyclo[3.2.1]oct-8-yl]propyl}-4,5-dimethyl-2,4-dihydro[1,2,4]triazol-3-one] displayed an IC50 of 4.3 µM.
The same measure, in the same setting: under `Cc1nc(=O)n(C[C@@H](F)CN2[C@@H]3CC[C@H]2C[C@@H](OCc2cccc(F)c2)C3)c(=O)n1C` [Example 13, (Endo)-3-{(S)-2-fluoro-3-[3-(3-fluorobenzyloxy)-8-azabicyclo[3.2.1]oct-8-yl]propyl}-1,6-dimethyl-1H-[1,3,5]triazine-2,4-dione oxalate] stands 10 µM; under `Cc1nc(=O)n(C[C@H](F)CN2[C@@H]3CC[C@H]2C[C@@H](OCc2cccc(F)c2)C3)c(=O)n1C` [Example 15, (Endo)-3-{(R)-2-fluoro-3-[3-(3-fluorobenzyloxy)-8-azabicyclo[3.2.1]oct-8-yl]propyl}-1,6-dimethyl-1H-[1,3,5]triazine-2,4-dione oxalate], 2.4 µM.
The compound `Cc1cccc(COC2CC3CCC(C2)N3CC(F)Cn2c(=O)nc(C)n(C)c2=O)c1` (stereo not drawn) [Example 21, (Endo)-3-{2-fluoro-3-[3-(3-methylbenzyloxy)-8-azabicyclo[3.2.1]oct-8-yl]-propyl}-1,6-dimethyl-1H-[1,3,5]triazine-2,4-dione oxalate] gave an IC50 of 4 µM.
On the same count and under the same terms, under `Cc1nn(C[C@H](F)CN2[C@@H]3CC[C@H]2C[C@@H](OCc2cccc(F)c2)C3)c(=O)n1-c1ccn(C)n1` [Example 23, (Endo)-2-{(R)-2-fluoro-3-[3-(3-fluorobenzyloxy)-8-azabicyclo[3.2.1]oct-8-yl]propyl}-5-methyl-4-(1-methyl-1H-pyrazol-3-yl)-2,4-dihydro[1,2,4]triazol-3-one oxalate] stands 5.3 µM; under `Cc1nn(C[C@@H](F)CN2[C@@H]3CC[C@H]2C[C@@H](OCc2ccc(F)cc2)C3)c(=O)n1-c1ccn(C)n1` [Example 24, (Endo)-2-{(S)-2-fluoro-3-[3-(4-fluorobenzyloxy)-8-azabicyclo[3.2.1]oct-8-yl]propyl}-5-methyl-4-(1-methyl-1H-pyrazol-3-yl)-2,4-dihydro[1,2,4]triazol-3-one oxalate], 3.7 µM.
Same read-out and setting: under `CCc1ccccc1COC1CC2CCC(C1)N2C[C@H](O)Cn1nc(C)n(CC)c1=O` (stereo partly drawn) [Example 31, (Endo)-4-ethyl-2-{(S)-3-[3-(2-ethylbenzyloxy)-8-azabicyclo[3.2.1]oct-8-yl]-2-hydroxypropyl}-5-methyl-2,4-dihydro[1,2,4]triazol-3-one] stands 1 µM; under `Cc1nn(C[C@H](O)CN2[C@@H]3CC[C@H]2C[C@@H](OCc2ccc(F)cc2)C3)c(=O)n1-c1cnn(C)c1` [Example 34, (Endo)-2-{(R)-3-[3-(4-fluorobenzyloxy)-8-azabicyclo[3.2.1]oct-8-yl]-2-hydroxypropyl}-5-methyl-4-(1-methyl-1H-pyrazol-4-yl)-2,4-dihydro[1,2,4]triazol-3-one], 16 µM; under `CCn1cnn(C[C@@H](O)CN2[C@@H]3CC[C@H]2C[C@@H](OCc2c(C)cccc2F)C3)c1=O` [Example 35, (Endo)-4-ethyl-2-{(S)-3-[3-(2-fluoro-6-methylbenzyloxy)-8-azabicyclo[3.2.1]oct-8-yl]-2-hydroxypropyl}-2,4-dihydro[1,2,4]triazol-3-one], 14 µM.
Still for that read-out and setting: under `Cc1nn(CC(O)CN2[C@@H]3CC[C@H]2C[C@@H](OCc2ccccc2F)C3)c(=O)n1-c1nccs1` (stereo partly drawn) [Example 48, (Endo)-2-{3-[3-(2-fluorobenzyloxy)-8-azabicyclo[3.2.1]oct-8-yl]-2-hydroxypropyl}-5-methyl-4-thiazol-2-yl-2,4-dihydro[1,2,4]triazol-3-one oxalate] stands 0.2 µM.
`Cn1c(-c2cocn2)nn(CC(O)CN2[C@@H]3CC[C@H]2C[C@@H](OCc2ccccc2CF)C3)c1=O` (stereo partly drawn) [Example 55, (Endo)-2-{3-[3-(2-fluoromethylbenzyloxy)-8-azabicyclo[3.2.1]oct-8-yl]-2-hydroxy-propyl}-4-methyl-5-oxazol-4-yl-2,4-dihydro[1,2,4]triazol-3-one] displayed an IC50 of 12 µM.
`Cn1c(-c2ccccc2)nn(CCCN2[C@@H]3CC[C@H]2C[C@@H](OCc2ccccc2F)C3)c1=O` [Example 57, (Endo)-2-{3-[3-(2-fluorobenzyloxy)-8-azabicyclo[3.2.1]oct-8-yl]propyl}-4-methyl-5-phenyl-2,4-dihydro[1,2,4]triazol-3-one oxalate] displayed an IC50 of 0.08 µM.
Still for that read-out and setting: under `CCn1c(C)nc(=O)n(CCCN2[C@@H]3CC[C@H]2C[C@@H](OCc2c(F)cccc2-c2ccccc2)C3)c1=O` [Example 91, (Endo)-1-ethyl-3-{3-[3-(3-fluorobiphenyl-2-ylmethoxy)-8-azabicyclo[3.2.1]oct-8-yl]propyl}-6-methyl-1H-[1,3,5]triazine-2,4-dione oxalate] stands 0.17 µM.
The same measure, in the same setting: under `Cc1nn2c(=O)n(C[C@H](F)CN3[C@@H]4CC[C@H]3C[C@@H](OCc3cccc(F)c3)C4)c(=O)nc2n1C` [Example 101, (Endo)-6-{(R)-2-fluoro-3-[3-(3-fluorobenzyloxy)-8-azabicyclo[3.2.1]oct-8-yl]propyl}-2,3-dimethyl-3H-[1,2,4]triazole[1,5-a][1,3,5]triazine-5,7-dione] stands 2.7 µM.
Same read-out and setting: under `Cc1nn2c(=O)n(C[C@H](F)CN3[C@@H]4CC[C@H]3C[C@@H](OCc3ccc(F)c(F)c3)C4)c(=O)nc2n1C` [Example 102, (Endo)-6-{(R)-3-[3-(3,4-di-fluorobenzyloxy)-8-azabicyclo[3.2.1]oct-8-yl]-2-fluoropropyl}-2,3-dimethyl-3H-[1,2,4]triazole[1,5-a][1,3,5]triazine-5,7-dione] stands 2.8 µM; under `O=c1nc2n(c(=O)n1C[C@H](F)CN1[C@@H]3CC[C@H]1C[C@@H](OCc1ccc(F)cc1)C3)CCC2` [Example 128, (Endo)-3-{(R)-2-fluoro-3-[3-(4-fluorobenzyloxy)-8-azabicyclo[3.2.1]oct-8-yl]propyl}-7,8-dihydro-6H-pyrrolo[1,2-a][1,3,5]triazine-2,4-dione oxalate], 3.7 µM; under `Cc1cccc(F)c1CO[C@H]1C[C@H]2CC[C@@H](C1)N2CCCn1c(=O)nc2n(c1=O)CCCCC2` [Example 136, (Endo)-3-{3-[3-(2-fluoro-6-methylbenzyloxy)-8-azabicyclo[3.2.1]oct-8-yl]propyl}-7,8,9,10-tetrahydro-6H-[1,3,5]triazino[1,2-a]azepine-2,4-dione oxalate], 4.9 µM.
As to `Cc1ccccc1OC[C@@H]1C[C@H]2CC[C@@H](C1)N2CCCCn1nc2ccccn2c1=O` [Example 153, (Exo)-2-{4-[3-(2-methylphenoxymethyl)-8-azabicyclo[3.2.1]oct-8-yl]butyl}-2H-[1,2,4]triazolo[4,3-a]pyridin-3-one oxalate], half-maximal inhibition (IC50) required 3.7 µM. The IC50 values of the last two compounds are within 1.5-fold of each other.
Same read-out and setting: under `O=c1n(CC[C@H](O)CN2[C@@H]3CC[C@H]2C[C@@H](OCc2ccccc2F)C3)nc2ccccn12` [Example 155, (Endo)-2-{(S)-4-[3-(2-fluorobenzyloxy)-8-azabicyclo[3.2.1]oct-8-yl]-3-hydroxybutyl}-2H-[1,2,4]triazolo[4,3-a]pyridin-3-one] stands 1.3 µM; under `O=C(CN1[C@@H]2CC[C@H]1C[C@@H](OCc1ccccc1F)C2)Cn1nc2ccccn2c1=O` [Example 158, (Endo)-2-{3-[3-(2-fluorobenzyloxy)-8-azabicyclo[3.2.1]oct-8-yl]-2-oxopropyl}-2H-[1,2,4]triazolo[4,3-a]pyridin-3-one], 0.93 µM.
On the same count and under the same terms, under `CCn1c(CCCN2[C@@H]3CC[C@H]2C[C@@H](OCc2ccccc2F)C3)nn(C)c1=O` [Example 169, (Endo)-4-ethyl-5-{3-[3-(2-fluorobenzyloxy)-8-azabicyclo[3.2.1]oct-8-yl]propyl}-2-methyl-2,4-dihydro[1,2,4]triazol-3-one] stands 12 µM; under `Cc1nc2c(c(=O)n1CCN1[C@@H]3CC[C@H]1C[C@@H](OCc1ccccc1F)C3)CCCC2` [Example 180, (Endo)-3-{2-[3-(2-fluorobenzyloxy)-8-azabicyclo[3.2.1]oct-8-yl]ethyl}-2-methyl-5,6,7,8-tetrahydro-3H-quinazolin-4-one oxalate], 4.8 µM.
In turn, `Cn1c(=O)c2c(ncn2CCCN2[C@@H]3CC[C@H]2C[C@@H](OCc2ccccc2F)C3)n(C)c1=O` [Example 182, (Endo)-7-{3-[3-(2-fluorobenzyloxy)-8-azabicyclo[3.2.1]oct-8-yl]propyl}-1,3-dimethyl-3,7-dihydro-purine-2,6-dione] yielded a 50% inhibitory concentration (IC50) of 6.7 µM.
Same read-out and setting: under `Cc1c(C)n(C)c(=O)n(CCCN2[C@@H]3CC[C@H]2C[C@@H](OCc2ccccc2F)C3)c1=O` [Example 189, (Endo)-3-{3-[3-(2-fluorobenzyloxy)-8-azabicyclo[3.2.1]oct-8-yl]propyl}-1,5,6-trimethyl-1H-pyrimidine-2,4-dione oxalate] stands 3.8 µM; under `O=c1n(CC(O)CN2[C@@H]3CC[C@H]2C[C@@H](OCc2ccccc2F)C3)nnn1-c1ccccc1` (stereo partly drawn) [Example 190, (Endo)-1-{3-[3-(2-fluorobenzyloxy)-8-azabicyclo[3.2.1]oct-8-yl]-2-hydroxypropyl}-4-phenyl-1,4-dihydro-tetrazol-5-one], 0.03 µM.

Still in this experiment, the particulars now being: 30 μM; reference for complete inhibition in the equation.
Turning to `CNCCCN1c2ccccc2CCc2ccccc21` [desipramine, reference compound], the Nav1.8 channel inhibition entry is reported as “completely inhibits”.
